# Assay results as given in patent US12458605B2, “Lipid nanoparticle” (National University Corporation Hokkaido University, priority 2020, dated 2025).
# Key:
# [1] = Storage stability of FlucmRNA-loaded LNP at −80, 5, 25 and 40° C.; type: physicochemical; conditions: for period for which quality remained good, −80° C.: maximum storage period 1 week; for period for which quality remained good, 5° C. / period for which quality remained good, 25° C. / period for which quality remained good, 40° C. (weeks): maximum storage period 5 weeks
# Summary of the method: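 Reported period is how long all three criteria hold: encapsulation rate at 80% or more, PDI of 0.2 or less, and mean particle size within +/−20 nm of day-of-preparation value. Particle size, PDI and nucleic acid encapsulation were tracked over time at storage temperatures of −80, 5, 25 and 40° C.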
# spleen = test: In vivo Fluc activity of FlucmRNA-loaded LNP by in vivo imaging, spleen; conditions: Balb/c mice, 6 hours; for Fluc Activity in spleen: FlucmRNA-loaded LNP i.v. 0.1 mg mRNA/kg; for Fluc activity in the spleen, compared with CL15F6: 0.1 mg mRNA/kg, versus LNP comprising CL15F6 (Table 7)
# Summary of the method: (§1)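 Read-out is average radiance (p/s/cm2/sr, about 560 nm) from whole-animal imaging of liver and spleen 6 h post-dose, after tail-vein luciferin at 1.5 mg/mouse. Dosing was intravenous, 0.1 mg mRNA/kg, in 7-week-old female Balb/c mice.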
# liver = test: In vivo Fluc activity of FlucmRNA-loaded LNP by in vivo imaging, liver; conditions: Balb/c mice, 6 hours; for Fluc Activity in liver: FlucmRNA-loaded LNP i.v. 0.1 mg mRNA/kg; for Fluc activity in the liver, compared with CL15F6: 0.1 mg mRNA/kg, versus LNP comprising CL15F6 (Table 7)
# Summary of the method: as §1
# [2] = siRNA/mRNA encapsulation rate by Ribogreen reagent (section IV); type: physicochemical; conditions: for % siRNA encapsulation: F7siRNA-loaded LNP, 50:10:38.5:1.5, N/P ratio 6; for % mRNA encapsulation: FlucmRNA-loaded LNP, 50:10:38.5:1.5
# Summary of the method: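 Encapsulation % was calculated as (total − surface nucleic acid)/total × 100, with both values measured by RiboGreen fluorescence at 485/528 nm. Total RNA was read on LNPs lysed with 1% Triton X-100 at 1.2 μg/mL, and surface RNA on intact LNPs at 8 μg/mL in TE buffer. Concentrations came from a 0-2.5 μg/mL Triton-containing calibration curve.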
# [3] = Average particle size (ζ-Average) and PDI by dynamic light scattering (Zetasizer Nano ZSP); type: physicochemical
# Summary of the method: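 Dynamic light scattering of the particles in PBS(−) gave both the polydispersity index and the ζ-Average mean size.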
# F7 = test: In vivo F7 knockdown, plasma F7 enzyme activity (BIOPHEN FVII), Balb/c mice; conditions: for F7 enzyme activity (Ratio using MC3 as 1): i.v. 0.025 mg siRNA/kg, plasma at 24 hours, relative plasma F7 activity of MC3 LNP as 1; for knockdown activity, compared with MC3: F7siRNA-loaded LNP, versus LNP comprising MC3
# Summary of the method: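 Plasma factor VII activity was read 24 h after a single intravenous 0.025 mg siRNA/kg dose of siRNA-loaded lipid nanoparticles in 5-week-old female Balb/c mice. Activity is relative to untreated animals (100%) and normalised to the MC3 nanoparticle benchmark (=1).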
# [4] = F7siRNA-loaded LNP, 50:10:38.5:1.5, N/P ratio 6
# [5] = FlucmRNA-loaded LNP, 50:10:38.5:1.5
# [6] = FlucmRNA-loaded LNP, lipid:DSPC:cholesterol:DMG-PEG2K 50:10:38.5:1.5
smiles,measurement,setting,value
CCCCCCC(CCCCCC)C(=O)OCCCCCCC(O)(CCCCCCOC(=O)C(CCCCCC)CCCCCC)CCCCOC(=O)C1CCN(C)CC1 [CL15F 8-6],"period for which quality remained good, −80° C.",[1],1 week
same,"period for which quality remained good, 5° C.",[1],5 weeks
same,"period for which quality remained good, 25° C.",[1],5 weeks
same,"period for which quality remained good, 40° C. (weeks)",[1],5 weeks
same,Fluc Activity in spleen,spleen,5.02E+06 Avg Radiance [p/s/cm2/sr]
same,Fluc Activity in liver,liver,1.92E+06 Avg Radiance [p/s/cm2/sr]
same,% siRNA encapsulation,[2],100.2%
same,% mRNA encapsulation,[2],99.2%
same,PDI,[3]; [4],0.056
same,ζ-Average (nm),[3]; [4],121.2 nm
same,PDI,[3]; [5],0.011
same,ζ-Average (nm),[3]; [6],132.00 nm
same,F7 enzyme activity (Ratio using MC3 as 1),F7,1.60
CCCCCCCC(CCC)C(=O)OCCCCCCC(O)(CCCCCCOC(=O)C(CCC)CCCCCCC)CCCCOC(=O)C1CCN(C)CC1 (stereo not drawn) [CL15F 9-3],"period for which quality remained good, −80° C.",[1],0 week
same,"period for which quality remained good, 5° C.",[1],5 weeks
same,"period for which quality remained good, 25° C.",[1],5 weeks
same,"period for which quality remained good, 40° C. (weeks)",[1],5 weeks
same,"Fluc activity in the spleen, compared with CL15F6",spleen,higher Fluc activity
same,Fluc Activity in spleen,spleen,7.47E+06 Avg Radiance [p/s/cm2/sr]
same,Fluc Activity in liver,liver,1.16E+06 Avg Radiance [p/s/cm2/sr]
same,% siRNA encapsulation,[2],98.3%
same,% mRNA encapsulation,[2],95.5%
same,PDI,[3]; [4],0.172
same,ζ-Average (nm),[3]; [4],200.4 nm
same,PDI,[3]; [5],0.044
same,ζ-Average (nm),[3]; [6],196.80 nm
same,F7 enzyme activity (Ratio using MC3 as 1),F7,1.50
CCCCCCCC(CCCCC)C(=O)OCCCCCCC(O)(CCCCCCOC(=O)C(CCCCC)CCCCCCC)CCCCOC(=O)C1CCN(C)CC1 (stereo not drawn) [CL15F 9-5],"period for which quality remained good, −80° C.",[1],1 week
same,"period for which quality remained good, 5° C.",[1],5 weeks
same,"period for which quality remained good, 25° C.",[1],5 weeks
same,"period for which quality remained good, 40° C. (weeks)",[1],5 weeks
same,"Fluc activity in the spleen, compared with CL15F6",spleen,higher Fluc activity
same,Fluc Activity in spleen,spleen,5.77E+06 Avg Radiance [p/s/cm2/sr]
same,Fluc Activity in liver,liver,1.86E+06 Avg Radiance [p/s/cm2/sr]
same,% siRNA encapsulation,[2],100.1%
same,% mRNA encapsulation,[2],99.1%
same,PDI,[3]; [4],0.035
same,ζ-Average (nm),[3]; [4],129.5 nm
same,PDI,[3]; [5],0.037
same,ζ-Average (nm),[3]; [6],135.00 nm
same,F7 enzyme activity (Ratio using MC3 as 1),F7,1.11
CCCCCCCC(CCCCCCC)C(=O)OCCCCCCC(O)(CCCCCCOC(=O)C(CCCCCCC)CCCCCCC)CCCCOC(=O)C1CCN(C)CC1 [CL15F 9-7],"period for which quality remained good, −80° C.",[1],1 week
same,"period for which quality remained good, 5° C.",[1],5 weeks
same,"period for which quality remained good, 25° C.",[1],5 weeks
same,"period for which quality remained good, 40° C. (weeks)",[1],5 weeks
same,Fluc Activity in spleen,spleen,4.23E+06 Avg Radiance [p/s/cm2/sr]
same,"Fluc activity in the liver, compared with CL15F6",liver,higher Fluc activity
same,Fluc Activity in liver,liver,6.76E+06 Avg Radiance [p/s/cm2/sr]
same,% siRNA encapsulation,[2],100.3%
same,% mRNA encapsulation,[2],99.5%
same,PDI,[3]; [4],0.023
same,ζ-Average (nm),[3]; [4],103.1 nm
same,PDI,[3]; [5],0.010
same,ζ-Average (nm),[3]; [6],107.60 nm
same,"knockdown activity, compared with MC3",F7,higher knockdown activity
same,F7 enzyme activity (Ratio using MC3 as 1),F7,0.60
CCCCCCCCC(CCCC)C(=O)OCCCCCCC(O)(CCCCCCOC(=O)C(CCCC)CCCCCCCC)CCCCOC(=O)C1CCN(C)CC1 (stereo not drawn) [CL15F 10-4],"period for which quality remained good, −80° C.",[1],1 week
same,"period for which quality remained good, 5° C.",[1],5 weeks
same,"period for which quality remained good, 25° C.",[1],5 weeks
same,"period for which quality remained good, 40° C. (weeks)",[1],5 weeks
same,Fluc Activity in spleen,spleen,3.97E+06 Avg Radiance [p/s/cm2/sr]
same,Fluc Activity in liver,liver,2.07E+06 Avg Radiance [p/s/cm2/sr]
same,% siRNA encapsulation,[2],100.3%
same,% mRNA encapsulation,[2],98.7%
same,PDI,[3]; [4],0.021
same,ζ-Average (nm),[3]; [4],126.8 nm
same,PDI,[3]; [5],0.030
same,ζ-Average (nm),[3]; [6],146.10 nm
same,F7 enzyme activity (Ratio using MC3 as 1),F7,2.00
CCCCCCCCC(CCCCC)C(=O)OCCCCCCC(O)(CCCCCCOC(=O)C(CCCCC)CCCCCCCC)CCCCOC(=O)C1CCN(C)CC1 (stereo not drawn) [CL15F 10-5],"period for which quality remained good, −80° C.",[1],1 week
same,"period for which quality remained good, 5° C.",[1],5 weeks
same,"period for which quality remained good, 25° C.",[1],5 weeks
same,"period for which quality remained good, 40° C. (weeks)",[1],5 weeks
same,"Fluc activity in the spleen, compared with CL15F6",spleen,higher Fluc activity
same,Fluc Activity in spleen,spleen,7.55E+06 Avg Radiance [p/s/cm2/sr]
same,Fluc Activity in liver,liver,2.70E+06 Avg Radiance [p/s/cm2/sr]
same,% siRNA encapsulation,[2],100.5%
same,% mRNA encapsulation,[2],99.4%
same,PDI,[3]; [4],0.003
same,ζ-Average (nm),[3]; [4],111.7 nm
same,PDI,[3]; [5],0.047
same,ζ-Average (nm),[3]; [6],113.90 nm
same,F7 enzyme activity (Ratio using MC3 as 1),F7,1.33
CCCCCCCCC(CCCCCCCC)C(=O)OCCCCCCC(O)(CCCCCCOC(=O)C(CCCCCCCC)CCCCCCCC)CCCCOC(=O)C1CCN(C)CC1 [CL15F 10-8],"period for which quality remained good, −80° C.",[1],1 week
same,"period for which quality remained good, 5° C.",[1],5 weeks
same,"period for which quality remained good, 25° C.",[1],5 weeks
same,"period for which quality remained good, 40° C. (weeks)",[1],5 weeks
same,"Fluc activity in the spleen, compared with CL15F6",spleen,higher Fluc activity
same,Fluc Activity in spleen,spleen,8.42E+06 Avg Radiance [p/s/cm2/sr]
same,"Fluc activity in the liver, compared with CL15F6",liver,higher Fluc activity
same,Fluc Activity in liver,liver,1.35E+07 Avg Radiance [p/s/cm2/sr]
same,% siRNA encapsulation,[2],100.6%
same,% mRNA encapsulation,[2],99.78%
same,PDI,[3]; [4],0.041
same,ζ-Average (nm),[3]; [4],99.44 nm
same,PDI,[3]; [5],0.026
same,ζ-Average (nm),[3]; [6],99.84 nm
same,"knockdown activity, compared with MC3",F7,higher knockdown activity
same,F7 enzyme activity (Ratio using MC3 as 1),F7,0.52
CCCCCCCCCC(CCCCC)C(=O)OCCCCCCC(O)(CCCCCCOC(=O)C(CCCCC)CCCCCCCCC)CCCCOC(=O)C1CCN(C)CC1 (stereo not drawn) [CL15F 11-5],"period for which quality remained good, −80° C.",[1],1 week
same,"period for which quality remained good, 5° C.",[1],5 weeks
same,"period for which quality remained good, 25° C.",[1],5 weeks
same,"period for which quality remained good, 40° C. (weeks)",[1],5 weeks
same,Fluc Activity in spleen,spleen,5.01E+06 Avg Radiance [p/s/cm2/sr]
same,"Fluc activity in the liver, compared with CL15F6",liver,higher Fluc activity
same,Fluc Activity in liver,liver,9.38E+06 Avg Radiance [p/s/cm2/sr]
same,% siRNA encapsulation,[2],100.3%
same,% mRNA encapsulation,[2],99.8%
same,PDI,[3]; [4],0.017
same,ζ-Average (nm),[3]; [4],109.6 nm
same,PDI,[3]; [5],0.010
same,ζ-Average (nm),[3]; [6],108.90 nm
same,"knockdown activity, compared with MC3",F7,higher knockdown activity
same,F7 enzyme activity (Ratio using MC3 as 1),F7,0.78
